Read-outs that look alike come from different tables or passages of the source.
Key:
HT-29 cells = assay: TNF-induced necroptosis (TNFα/Smac mimetic/z-VAD), cell viability by ATP levels; format: cell-based, human
Protocol: (§1) Necroptosis is tightly regulated by RIP kinases including RIPK1 and RIPK3. To develop new necroptosis inhibitors, we screened a small-molecule library of around 240 potential kinase inhibitors that were designed with novel structures to affect the ATP-binding pocket of protein kinases. Human colon cancer HT-29 cells were treated with these compounds for […], followed by treatment with necroptotic stimuli (TNFα, Smac mimetic, and z-VAD) that are known to activate TNF-mediated necroptosis. After 48 h, cell viability was analyzed by monitoring ATP levels.
(§2) Fig. 1 PK6 efficiently blocks TNF-α induced necroptosis in both human and mouse cells. a HT-29 cells cultured in 96-well plates were pretreated with the indicated compounds (10 μM) from a library consisting of ~240 compounds that we designed with novel structures for 1 h and subsequently treated with 40 ng/ml TNF-α (T), 100 nM Smac mimetic (S), and the caspase inhibitor 20 μM z-VAD(Z) for 48 h. Cell viability was assessed by measuring ATP levels. Data are represented as the mean ± standard deviation of duplicates. b Chemical structure of PK6. c Dose response curve and EC50 ± SD value for PK6 in TNF-α induced necroptosis in HT-29 cells. Cells were pretreated with indicated concentrations of PK6 for 1 h prior to the treatment with T (40 ng/ml), S (100 nM), and Z (20 μM) for 48 h. Cell viability was assessed by measuring ATP levels. d U937 cells were pretreated with indicated concentrations of PK6 for 1 h followed by the treatment with T (40 ng/ml), S (100 nM), and Z (20 μM) for 24 h. e MEF cells were pretreated with indicated concentrations of PK6 for 1 h followed by the treatment with T (40 ng/ml), S (100 nM), and Z (20 μM) for 24 h. f L929 cells were pretreated with indicated concentrations of PK6 for 1 h prior to the treatment with S (100 nM) and Z (20 μM) for 24 h.
(§3) Fig. 2 Chemical optimization of PK6 leads to improvements in anti-necroptotic activity. a, b The effects of the indicated compounds on cell viability were examined in HT-29 cells (a) and L929 cells (b). HT-29 cells were treated as indicate for 48 h and L929 cells for 24 h. Cell viability was assessed by measuring ATP levels. Data are represented as the mean ± standard deviation of triplicates. c Structure and EC50 ± SD value of each compound are shown in the table. EC50 values are the average of at least two independent determinations. d Lead optimization of PK6 TEXT PRINTED IN THE PICTURE: (c) PK6: EC50(nM) HT-29: 1200±53; EC50(nM) L929: 760±26 | (c) PK67: EC50(nM) HT-29: 250±6.3; EC50(nM) L929: 130±6.8 | (c) PK81: EC50(nM) HT-29: 120±7.6; EC50(nM) L929: 20±0.98 | (c) PK84: EC50(nM) HT-29: 97±6.7; EC50(nM) L929: 45±2.1 | (c) PK93: EC50(nM) HT-29: 130±36; EC50(nM) L929: 30±7.4 | (c) PK86: EC50(nM) HT-29: 73±3.9; EC50(nM) L929: 15±1.0 | (c) PK68: EC50(nM) HT-29: 23±1.4; EC50(nM) L929: 13±0.85
(§4) The cell viability was analyzed by using the CellTiter-Glo Luminescent Cell Viability Assay kit following the manufacturer’s instructions (Promega). Luminescence was measured with SpectraMax i3x (Molecular Devices).

L929 cells = assay: TNF-induced necroptosis, cell viability by ATP levels; format: cell-based; conditions: Mus musculus, L929, 24 h
Protocol: as §1, §2, §3, §4

[1] = test system: phosphorylation of RIPK1, RIPK3, and MLKL in HT-29 cells; assay: Western blot of necroptotic signaling after T/S/Z; format: cell-based, human; conditions: T/S/Z 8 h
Text: In addition to TNF-induced necroptosis, it is known that TLR3 or TLR4 activation can also trigger necroptosis. We further evaluated the effects of PK6 and PK68 on TLR3- and TLR4-mediated necroptosis induced by poly(I:C)/z-VAD and LPS/z-VAD, respectively. […] To investigate the molecular mechanism of PK series-mediated necroptosis inhibition, we examined the effects of these compounds on the major steps of necroptotic signaling, including activation of RIPK1, RIPK3, and MLKL. […] It has been shown previously that RIPK3 activation leads to the formation of RIPK3 puncta during necroptosis.
Fig. 3 PK6 and PK68 block cellular activation of RIPK1, RIPK3, and MLKL upon necroptotic stimuli. a, b Bone marrow-derived macrophages from C57BL/6 mice or rat were pretreated with DMSO, PK6(10 μM), or PK68 (100 nM) for 1 h and subsequently treated with indicated stimuli for 24–30 h. Cell viability was determined by measuring ATP levels. L, LPS (20 ng/ml); P, poly(I:C) (50 μg/ml); S (100 nM); Z (10 μM). Data are represented as the mean ± standard deviation of triplicates. c HT-29 cells were treated with the indicated compound for 1 h prior to the treatment of T (40 ng/ml), S (100 nM), and Z (20 μM) for additional 8 h. […] The distribution of RIPK3 was detected by immunofluorescence. *P < 0.05. **P < 0.01. ***P < 0.001 […]

In the case of `CC(=O)Nc1nc2ccc(-c3cnc(Cl)c(NC(=O)Cc4ccccc4)c3)cc2s1` [PK6, N-(5-(2-acetamidobenzo[d]thiazol-6-yl)-2-chloropyridin-3-yl)-2-phenylacetamide], the EC50 (HT-29 cells; Homo sapiens, HT-29, 48 h, T 40 ng/ml, S 100 nM, Z 20 μM, 48 h, read-out: EC50, TNF-induced necroptosis) is reported as roughly 1200 nM, the EC50 (L929 cells; S 100 nM and Z 20 μM, read-out: EC50, TNF-induced necroptosis) is reported as roughly 760 nM and the “phosphorylation of RIPK1, RIPK3, and MLKL” value [1] is reported as “completely abolished”.
`CC(=O)Nc1nc2ccc(-c3cnc(C)c(NC(=O)OC4CCCCC4)c3)cc2s1` [PK68, cyclohexyl (5-(2-acetamidobenzo[d]thiazol-6-yl)-2-methylpyridin-3-yl)carbamate] was tested, and the EC50 (HT-29 cells; Homo sapiens, HT-29, 48 h, T/S/Z 48 h, read-out: EC50(nM) HT-29) was 23 nM, the EC50 (HT-29 cells; T/S/Z 48 h, read-out: EC50(nM) HT-29) was roughly 20 nM and the EC50 (L929 cells; read-out: EC50(nM) L929) was 13 nM. The “phosphorylation of RIPK1, RIPK3, and MLKL” value [1] was “completely abolished”.
